Calls of active or inactive are those of the source. No cut-off for these calls is given here.
Assays:
Hepatitis C virus [1] = assay: Antiviral activity against HCV infected in Huh5.2 cells assessed as inhibition of viral replication by luciferase reporter gene assay; type: functional, organism-based, Hepacivirus hominis; settings: Huh-5-2
[2] = Cytotoxicity against human HuH5.2 cells; type: cell-based, Huh-5-2
[3] = tested on: Human immunodeficiency virus; assay: Antiviral activity against HIV assessed as inhibition of viral replication; type: functional, organism-based
[4] = Selectivity ratio, ratio of CC50 for Huh5.2 cells to IC50 for HCV infected in Huh5.2 cells; type: cell-based; settings: human, Huh5.2 cells (CC50) and HCV-infected Huh5.2 cells (IC50)
Hepatitis C virus [5] = assay: Antiviral activity against HCV infected in Huh5.2 cells assessed as concentration required to inhibit viral replication without causing an antimetabolic effect; type: functional, Hepacivirus hominis

| SMILES | IC50 (Hepatitis C virus [1]) [µM] | CC50 [2] [µM] | Activity [3] | selectivity ratio [4] | Imax (Hepatitis C virus [5]) [%] |
| --- | --- | --- | --- | --- | --- |
| Nc1ncnc2c1ncn2Cc1cn(CCP(=O)(O)O)nn1 | > 35 | 35 | inactive | < 1 | – |
| Nc1ncnc2c1ncn2Cc1cn(CP(=O)(O)O)nn1 | 16 | > 300 | inactive | > 20 | 80.65 |
| Cc1cn(Cc2cn(CP(=O)(O)O)nn2)c(=O)[nH]c1=O | 26 | > 300 | inactive | > 13 | – |

Now from value to compound, other results behind:

| IC50 (Hepatitis C virus [1]) [µM] | SMILES | CC50 [2] [µM] | Activity [3] | selectivity ratio [4] | Imax (Hepatitis C virus [5]) [%] |
| --- | --- | --- | --- | --- | --- |
| 20 | Cc1cn(Cc2cn(CCP(=O)(O)O)nn2)c(=O)[nH]c1=O | > 300 | inactive | > 15 | 79.28 |
| 29 | O=c1ccn(Cc2cn(CP(=O)(O)O)nn2)c(=O)[nH]1 | 131 | inactive | 4.42 | – |
| 16 | O=c1ccn(Cc2cn(CCP(=O)(O)O)nn2)c(=O)[nH]1 | > 300 | inactive | > 20 | 75.47 |

— ChEMBL document CHEMBL1287757, “Straightforward synthesis of triazoloacyclonucleotide phosphonates as potential HCV inhibitors” (Bioorg Med Chem Lett, 2010)
